# Patent publication US9409952B2, “Peptide-compound cyclization method” (Chugai Seiyaku Kabushiki Kaisha, priority 2011, dated 2016)
# Like-named read-outs stand apart in the source and are kept apart here. Starred links: 1 amine or outer side, 2 acyl side, 3 side chain; linkers in the order of their positions; H or OH if unused. Positions of bridges follow the written chain, without caps; N, C: chain ends. Non-standard residues stand in square brackets, D forms with d. Residues, ends and D or L forms follow the SMILES beside them. *: point of attachment. NMeF = CN[C@@H](Cc1ccccc1)C(=O)O; NMeβAla = CN(CCC(=O)[*:2])[*:1]; NMeL = CN[C@@H](CC(C)C)C(=O)O; NMeV = CN[C@H](C(=O)O)C(C)C; NMeA = CN[C@@H](C)C(=O)O; Piperidide = C1CCN(*)CC1; dNMeA = CN[C@H](C)C(=O)O; Sar = CNCC(=O)O; tBu = CC(C)(C)*
# Columns and labels:
# [1] = Metabolic stability in human hepatic microsome; format: in vitro ADME; conditions: microsomes
# [2] = PAMPA (parallel artificial membrane permeability assay); format: in vitro ADME; conditions: for Papp at 18 hours, 50 µM: PAMPA
# Procedure, shortened: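 Artificial membrane was 10% (w/v) egg lecithin plus 0.5% (w/v) cholesterol in dodecane on a PVDF filter. A 10 mM DMSO stock was added at 0.5% (v/v) to donor buffer (50 mM MOPSO, pH 6.5, 5.0% glycocholic acid). After 18 h at 37 °C, LC/MS or LC/UV gave donor and acceptor levels for Pe.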
# [3] = pH 7.4, human hepatic microsome, NADPH(+), read-out: CL NADPH(+)
# [4] = membrane permeation rate (Pe), 50 mM MOPSO buffer pH 6.5 with 5.0% glycocholic acid, 37° C., 18 hours, read-out: iPAMPA Pe
SMILES,"microsomal CLint at 1 uM ([1]; human, pH 7.4, CL NADPH(+))","Papp at 18 hours, 50 µM ([2]; pH 6.5)","microsomal CLint at 1 uM [1, 3]","Papp at 18 hours, 50 µM [2, 4]","iPAMPA Pe ([2]; membrane permeation rate (Pe), 50 mM MOPSO buffer pH 6.5 with 5.0% glycocholic acid, 37° C., 18 hours)"
CC[C@H](C)[C@@H]1NC(=O)[C@H](Cc2ccccc2)N(C)C(=O)[C@H](C)N(C)C(=O)[C@H]([C@@H](C)O)NC(=O)[C@@H](C)N(C)C(=O)C[C@@H](C(=O)N2CCCCC2)NC(=O)[C@H](CC(C)C)N(C)C(=O)[C@H](C)N(C)C(=O)[C@H](Cc2ccccc2)NC(=O)[C@H](C(C)C)N(C)C(=O)[C@@H]2CCCN2C1=O [DP-164] ([dNMeA]T[NMeA][NMeF]IP[NMeV]F[NMeA][NMeL]D-Piperidide; lactam N-11),253 µL/min/mg,300 nm/s,,,
CC(C)C[C@@H]1NC(=O)[C@H](CC(C)C)N(C)C(=O)[C@H](C)N(C)C(=O)[C@@H](C)N(C)C(=O)C[C@@H](C(=O)N2CCCCC2)NC(=O)[C@H]([C@@H](C)O)NC(=O)CN(C)C(=O)[C@H](Cc2ccccc2)NC(=O)[C@H](CC(C)C)N(C)C(=O)[C@H](C(C)C)N(C)C(=O)[C@H](Cc2ccccc2)N(C)C1=O [DP-165] ([dNMeA][NMeA][NMeL]L[NMeF][NMeV][NMeL]F[Sar]TD-Piperidide; lactam N-11),,,42 µL/min/mg,560 nm/s,
CC(C)C[C@@H]1NC(=O)[C@H](CC(C)C)N(C)C(=O)[C@H](C)NC(=O)[C@H](C)N(C)C(=O)[C@H]([C@@H](C)O)NC(=O)CN(C)C(=O)[C@H](C(C)C)N(C)C(=O)[C@H](CC(C)C)N(C)C(=O)[C@H](Cc2ccccc2)NC(=O)CN(C)C(=O)C[C@@H](C(=O)N2CCCCC2)NC1=O [DP-167] ([Sar]F[NMeL][NMeV][Sar]T[NMeA]A[NMeL]LD-Piperidide; lactam N-11),,,75 µL/min/mg,95 nm/s,
CC[C@H](C)[C@@H]1NC(=O)[C@H](Cc2ccccc2)N(C)C(=O)CN(C)C(=O)C[C@@H](C(=O)N2CCCCC2)NC(=O)[C@H](C(C)C)N(C)C(=O)[C@H](COC(C)(C)C)NC(=O)[C@H](CC(C)C)N(C)C(=O)[C@H](Cc2ccccc2)N(C)C(=O)CN(C)C(=O)[C@H]([C@@H](C)O)NC(=O)[C@H](CC(C)C)N(C)C1=O [DP-168] ([Sar][NMeF]I[NMeL]T[Sar][NMeF][NMeL]S(tBu)[NMeV]D-Piperidide; lactam N-11),,,85 µL/min/mg,230 nm/s,
CC(C)C[C@@H]1NC(=O)[C@H]([C@@H](C)O)NC(=O)[C@H](Cc2ccccc2)N(C)C(=O)[C@H](CC(C)C)N(C)C(=O)[C@H](Cc2ccccc2)N(C)C(=O)[C@H](C)N(C)C(=O)[C@H](C)N(C)C(=O)[C@H](CC(C)C)N(C)C(=O)[C@@H](C)NC(=O)C[C@@H](C(=O)N2CCCCC2)NC1=O [DP-169] ([dA][NMeL][NMeA][NMeA][NMeF][NMeL][NMeF]TLD-Piperidide; lactam N-10),,,43 µL/min/mg,360 nm/s,
CC(C)C[C@H]1C(=O)N[C@@H](COC(C)(C)C)C(=O)N(C)[C@@H](CC(C)C)C(=O)N[C@H](C(=O)N2CCCCC2)CC(=O)N[C@H](C)C(=O)N(C)[C@@H](C)C(=O)N(C)[C@@H](Cc2ccccc2)C(=O)N(C)[C@@H](CC(C)C)C(=O)N[C@@H]([C@@H](C)O)C(=O)N(C)CC(=O)N1C [DP-170] ([dA][NMeA][NMeF][NMeL]T[Sar][NMeL]S(tBu)[NMeL]D-Piperidide; lactam N-10),,,22 µL/min/mg,430 nm/s,
CC(C)C[C@H]1C(=O)N(C)[C@@H](C(C)C)C(=O)N[C@@H](Cc2ccccc2)C(=O)N[C@H](C(=O)N2CCCCC2)CC(=O)N[C@H](C(C)C)C(=O)N[C@@H](COC(C)(C)C)C(=O)N(C)[C@@H](CC(C)C)C(=O)N[C@@H]([C@@H](C)O)C(=O)N(C)[C@@H](Cc2ccccc2)C(=O)NCC(=O)N1C [DP-171] ([dV]S(tBu)[NMeL]T[NMeF]G[NMeL][NMeV]FD-Piperidide; lactam N-10),,,191 µL/min/mg,500 nm/s,
CC[C@H](C)[C@@H]1NC(=O)[C@H]([C@@H](C)O)NC(=O)[C@H](C)N(C)C(=O)[C@H](CC(C)C)N(C)C(=O)[C@H](Cc2ccccc2)N(C)C(=O)[C@H](Cc2ccccc2)N(C)C(=O)[C@H](C)N(C)C(=O)[C@H](CC(C)C)N(C)C(=O)[C@@H](C(C)C)NC(=O)C[C@@H](C(=O)N2CCCCC2)NC1=O [DP-172] ([dV][NMeL][NMeA][NMeF][NMeF][NMeL][NMeA]TID-Piperidide; lactam N-10),,,25 µL/min/mg,,7.0E−05
CC[C@H](C)[C@@H]1NC(=O)[C@H](CC(C)C)N(C)C(=O)[C@H](C)NC(=O)[C@H](C)N(C)C(=O)C[C@@H](C(=O)N2CCCCC2)NC(=O)[C@H](C(C)C)N(C)C(=O)[C@H](Cc2ccccc2)N(C)C(=O)[C@H]([C@@H](C)O)NC(=O)[C@H](CC(C)C)N(C)C(=O)[C@H](Cc2ccccc2)NC1=O [DP-173] ([NMeA]A[NMeL]IF[NMeL]T[NMeF][NMeV]D-Piperidide; lactam N-10),,,251 µL/min/mg,580 nm/s,
CC(C)C[C@H]1C(=O)N(C)[C@@H](CC(C)C)C(=O)N(C)[C@@H](CC(C)C)C(=O)N[C@H](C(=O)N2CCCCC2)CC(=O)N(C)CCC(=O)N[C@@H]([C@@H](C)O)C(=O)N(C)[C@@H](C)C(=O)N(C)[C@@H](Cc2ccccc2)C(=O)N(C)[C@@H](Cc2ccccc2)C(=O)NCC(=O)N1C [DP-174] ([NMeβAla]T[NMeA][NMeF][NMeF]G[NMeL][NMeL][NMeL]D-Piperidide; lactam N-10),,,66 µL/min/mg,220 nm/s,
CC(C)C[C@H]1C(=O)N[C@H](C(=O)N2CCCCC2)CC(=O)N(C)CC(=O)N[C@@H]([C@@H](C)O)C(=O)N(C)[C@@H](C)C(=O)N(C)[C@@H](Cc2ccccc2)C(=O)NCC(=O)N(C)[C@@H](Cc2ccccc2)C(=O)N(C)[C@@H](CC(C)C)C(=O)N(C)[C@@H](CC(C)C)C(=O)N1C [DP-175] ([Sar]T[NMeA][NMeF]G[NMeF][NMeL][NMeL][NMeL]D-Piperidide; lactam N-10),,,94 µL/min/mg,480 nm/s,
CC(C)C[C@H]1C(=O)NCC(=O)N[C@H](C(=O)N2CCCCC2)CC(=O)N[C@H](C(C)C)C(=O)N[C@@H]([C@@H](C)O)C(=O)N(C)[C@@H](C)C(=O)N(C)[C@@H](Cc2ccccc2)C(=O)N(C)[C@@H](Cc2ccccc2)C(=O)N[C@@H](COC(C)(C)C)C(=O)N1C [DP-176] ([dV]T[NMeA][NMeF][NMeF]S(tBu)[NMeL]GD-Piperidide; lactam N-9),,,47 µL/min/mg,250 nm/s,
CC(C)C[C@@H]1NC(=O)[C@H](CC(C)C)N(C)C(=O)[C@H](Cc2ccccc2)NC(=O)[C@H](C)NC(=O)[C@H](C(C)C)N(C)C(=O)CN(C)C(=O)[C@H]([C@@H](C)O)NC(=O)[C@H](C)N(C)C(=O)[C@H](CC(C)C)N(C)C(=O)[C@H](C)NC(=O)C[C@@H](C(=O)N(C)[C@@H](Cc2ccccc2)C(=O)N[C@@H](C)C(=O)N2CCCCC2)NC1=O [DP-177] (A[NMeL][NMeA]T[Sar][NMeV]AF[NMeL]LD[NMeF]A-Piperidide; lactam N-11),,,27 µL/min/mg,230 nm/s,
CC(C)C[C@@H]1NC(=O)[C@H](CC(C)C)N(C)C(=O)[C@H](C)NC(=O)[C@H](C(C)C)N(C)C(=O)[C@H](Cc2ccccc2)NC(=O)CN(C)C(=O)[C@H]([C@@H](C)O)NC(=O)[C@H](C)N(C)C(=O)[C@H](CC(C)C)N(C)C(=O)[C@@H](C)NC(=O)C[C@@H](C(=O)N(C)[C@@H](Cc2ccccc2)C(=O)N[C@@H](C)C(=O)N2CCCCC2)NC1=O [DP-179] ([dA][NMeL][NMeA]T[Sar]F[NMeV]A[NMeL]LD[NMeF]A-Piperidide; lactam N-11),,,13 µL/min/mg,170 nm/s,
CC[C@H](C)[C@@H]1NC(=O)[C@H](C)N(C)C(=O)[C@H](C)N(C)C(=O)[C@H]([C@@H](C)O)NC(=O)[C@H](CC(C)C)N(C)C(=O)[C@H](CC(C)C)NC(=O)[C@H](Cc2ccccc2)N(C)C(=O)[C@@H](C)NC(=O)C[C@@H](C(=O)N(C)[C@@H](Cc2ccccc2)C(=O)N[C@@H](C)C(=O)N2CCCCC2)NC(=O)[C@H](C(C)C)N(C)C(=O)[C@H](Cc2ccccc2)N(C)C1=O [DP-180] ([dA][NMeF]L[NMeL]T[NMeA][NMeA]I[NMeF][NMeV]D[NMeF]A-Piperidide; lactam N-11),,,35 µL/min/mg,230 nm/s,
CC(C)C[C@@H]1NC(=O)[C@H](CC(C)C)N(C)C(=O)[C@H](C)N(C)C(=O)[C@H](Cc2ccccc2)NC(=O)[C@H](C(C)C)N(C)C(=O)CNC(=O)[C@H]([C@@H](C)O)NC(=O)[C@H](C)N(C)C(=O)[C@H](CC(C)C)N(C)C(=O)[C@H](C)N(C)C(=O)C[C@@H](C(=O)N(C)[C@@H](Cc2ccccc2)C(=O)N[C@@H](C)C(=O)N2CCCCC2)NC1=O [DP-181] ([NMeA][NMeL][NMeA]TG[NMeV]F[NMeA][NMeL]LD[NMeF]A-Piperidide; lactam N-11),,,13 µL/min/mg,180 nm/s,
CC(C)C[C@@H]1NC(=O)[C@H](CC(C)C)N(C)C(=O)[C@@H]2CCCN2C(=O)[C@H](CC(C)C)N(C)C(=O)[C@H](Cc2ccccc2)NC(=O)CNC(=O)[C@H](CC(C)C)N(C)C(=O)[C@H](Cc2ccccc2)NC(=O)CCN(C)C(=O)C[C@@H](C(=O)N(C)[C@@H](Cc2ccccc2)C(=O)N[C@@H](C)C(=O)N2CCCCC2)NC(=O)[C@H]([C@@H](C)O)NC1=O [DP-182] ([NMeβAla]F[NMeL]GF[NMeL]P[NMeL]LTD[NMeF]A-Piperidide; lactam N-11),,,9 µL/min/mg,260 nm/s,
